Test results reported in patent publication US20150038493A1, “COMPOUNDS THAT TRAP ALPHA-OXOALDEHYDES AND ALPHA-BETA-UNSATURATED ALDEHYDES, META-COMPOUNDS CONTAINING SUCH COMPOUNDS, AND USE OF SAID COMPOUNDS IN TREATING ILLNESSES RELATED TO THE ACCUMULATION OF AGES AND ALES” (PHARMAMENS, priority 2011, published 2015).
Peptide text beside a SMILES is read from it.

Assays:
[1] = Scavenging of glyoxal (GO) generated from glucose incubated at 37° C., LC-MS assay after 2,3-diaminonaphthalene derivatization; conditions: for GO scavenging activity (in words): compound 100 μM added on 7th day, FIG. 1; for level of GO observed after 14 days: glucose 50 mM, phosphate buffer pH 7.4, 37° C., compound added on 7th day, final concentration 100 μM
Procedure: (§1) An aqueous solution of glucose (50 mM in phosphate buffer at 100 mM, pH=7.4) is incubated at 37° C. for 14 days in order to “naturally” generate glyoxal (GO) and methylglyoxal (MGO). The compound tested is introduced on the 7th day (final concentration=100 μM). The GO and MGO concentrations of the medium are measured at regular intervals by LC-MS assaying, after derivatization with 2,3-diaminonaphthalene, in order to determine the effect of the compound tested.
(§2) The results of the assays are compared with those obtained without the addition of scavenger compound (control) and with those obtained during the addition of a reference compound (aminoguanidine, D-Dap, D-Dap-L-Leu, 8-hydroxyquinoline).
(§3) A solution S0 of glucose (50 mM) in phosphate buffer (100 mM, pH=7.4) is prepared and then filtered through a sterile 0.2 μm membrane into a sterile Falcon tube, under a vertical laminar flow filtering hood. 1000 μl of solution S0 are then charged to several sterile capped Eppendorf tubes (1.5 ml) which are then stoppered and placed at 37° C., in the dark, for 14 days (“control” series). The rest of the solution S0 is incubated in the same way, in a Falcon tube. The Eppendorf tubes are then removed, one by one, at regular intervals (approximately 24 h) and are immediately placed at −20° C. while awaiting analysis.
(§4) On D=7, an aqueous solution S1 of the compound tested (5 mM) is prepared and then filtered through a sterile 0.2 μm membrane into a sterile Falcon tube, under a vertical laminar flow filtering hood. A mixture of the solution S1 (140 μl) and of the remaining solution S0, incubated for 7 days at 37° C. (6860 μl), is then prepared before being divided up between 6 sterile Eppendorf tubes (6×1000 μl) which are subsequently stoppered and placed at 37° C., in the dark, for 7 days (“test” series). These tubes are removed, one by one, at regular intervals (approximately 24 h) and are immediately placed at −20° C. while awaiting analysis. On D=14, the tubes of the “control” and “test” series are thawed and are each treated with 100 μl of a solution of 2,3-diaminonaphthalene (10 mM) in order to derivatize the GO and the MGO, respectively in the form of GO-DAN and of MGO-DAN. After homogenization (vortex for 10 sec), the tubes are left to stand for 24 h, at 20° C., in the dark. The GO-DAN and the MGO-DAN are then assayed in each sample by LC-MS (Shimadzu LCMS-2020), by external calibration carried out with standard solutions of GO-DAN and of MGO-DAN, according to the following conditions. Column: Shim-pack XR-ODS II (75×2 mm, 80 Å), temperature: 40° C., eluent: water/methanol (50/50)+0.1% of formic acid, flow rate: 300 μl/min, analysis time: 10 min, injection volume: 1 μl, detection: ESI+ in SIM mode (m/z=181.1 and 195.1) with the following parameters: interface voltage=4.5 kV, DL voltage=10 V, Q-array DC=0 V, Q-array RF=40 V (for m/z=181.1) or 10 V (for m/z=195.1). The GO-DAN and MGO-DAN compounds are respectively detected at the retention times of 3.9 min and 5.4 min.

[2] = Scavenging of methylglyoxal (MGO) generated from glucose incubated at 37° C., LC-MS assay after 2,3-diaminonaphthalene derivatization; conditions: for MGO scavenging activity (in words): compound 100 μM added on 7th day, FIG. 2; for level of MGO observed after 14 days: glucose 50 mM, phosphate buffer pH 7.4, 37° C., compound added on 7th day, final concentration 100 μM
Procedure: as §1, §2, §3, §4

[3] = test system: advanced glycation end-products (AGEs) on human albumin; assay: Inhibition of AGE formation: fluorescence of human albumin incubated with glucose; format: biochemical; conditions: human albumin 50 g/l, glucose 500 mM, compound 50 mM, 37° C., 20 days; ex 370 nm, em 440 nm
Procedure: Human albumin at physiological concentration (50 g/l) is incubated with glucose (500 mM in phosphate buffer at 100 mM, pH=7.4) at 37° C. for 20 days in the presence or absence of the compounds tested (50 mM). A measurement of the fluorescence (reading at 440 nm after excitation at 370 nm) is then carried out on each sample. The results are expressed in the form of a fluorescence read (sample)/maximum fluorescence observed (control without scavenger compound, D=20) ratio.
A solution of human albumin (50 g/l) and of glucose (500 mM) in phosphate buffer (100 mM, pH=7.4) is prepared. 1000 μl of the previous solution are then immediately charged to tubes, each containing one of the compounds tested (50 μmol). The resulting solutions are homogenized (vortex for 10 sec) and then immediately filtered through a sterile 0.2 μm membrane into sterile capped Eppendorf tubes (1.5 ml), under a vertical laminar flow filtering hood. The tubes are then stoppered and placed at 37° C., in the dark, for 20 days. After a return to ambient temperature (22° C.), a measurement of the fluorescence (λex=370 nm, λem=440 nm) is carried out on 200 μl of each sample.

| SMILES | GO scavenging activity (in words) [1] | MGO scavenging activity (in words) [2] | relative fluorescence (fluorescence read/maximum fluorescence of control D=20) [3] | level of GO observed after 14 days [1] | level of MGO observed after 14 days [2] |
| --- | --- | --- | --- | --- | --- |
| CC1CCN(C(=O)[C@H](N)CN)CC1 [Compound 4c] | activity close to or even greater than that of the reference compound, aminoguanidine | activity close to or even greater than that of the reference compound, aminoguanidine |  |  |  |
| Oc1cccc2cccnc12 [8-hydroxyquinoline] |  |  | 40% |  |  |
| C[C@@H](N)C(=O)N1CCOCC1 [D-Ala-Morpholine] |  |  | 78% |  |  |
| NCCC(=O)N[C@@H](Cc1cnc[nH]1)C(=O)O [carnosine] |  |  | 60% |  |  |
| NC[C@@H](N)C(=O)N1CCN(C(=O)Cc2ccc(O)c3ncccc23)CC1 [Compound 13, (2R)-2,3-diamino-1-{4-[2-(8-hydroxyquinolin-5-yl)acetyl]piperazin-1-yl}propan-1-one] | good capacity for scavenging of GO and of MGO | good capacity for scavenging of GO and of MGO | 2% | 2.6 µM | 0.12 µM |
| NC[C@@H](N)C(=O)N1CCN(Cc2ccc(O)c3ncccc23)CC1 [Compound 11, (2R)-2,3-diamino-1-{4-[(8-hydroxyquinolin-5-yl)methyl]piperazin-1-yl}propan-1-one] | good capacity for scavenging of GO and of MGO | good capacity for scavenging of GO and of MGO | 3% | 3.0 µM | 0.19 µM |
| N=C(N)NN [aminoguanidine, reference compound] |  |  | 3% | 68.4 µM | 1.20 µM |
| NC[C@@H](N)C(=O)N1CCN(C(=O)[C@H](N)CN)CC1 [Compound 6a, (2R,2′R)-1,1′-(piperazine-1,4-diyl)bis(2,3-diaminopropan-1-one)] | activity close to or even greater than that of the reference compound, aminoguanidine | activity close to or even greater than that of the reference compound, aminoguanidine |  |  |  |
| NC[C@@H](N)C(=O)N1CCN(C2CCCCC2)CC1 [Compound 4h, (2R)-2,3-diamino-1-(4-cyclohexylpiperazin-1-yl)propan-1-one] | activity close to or even greater than that of the reference compound, aminoguanidine | activity close to or even greater than that of the reference compound, aminoguanidine |  |  |  |
| CC(C)C[C@H](NC(=O)[C@H](N)CN)C(=O)O [D-Dap-L-Leu] (HELM PEPTIDE1{[NC[C@@H](N)C(=O)[*:2]].L}$$$$V2.0) |  |  | 43% |  |  |
| NC[C@@H](N)C(=O)N1CCOCC1 [Compound 4e] |  |  | 19% |  |  |
